Assay results reported in ChEMBL document CHEMBL5046254, “Mycobactin Analogues with Excellent Pharmacokinetic Profile Demonstrate Potent Antitubercular Specific Activity and Exceptional Efflux Pump Inhibition” (J Med Chem, 2022).
Converted amounts (≈) assume the structure as drawn.

Key:
[1] = test system: Mycolicibacterium smegmatis; test: Antitubercular activity against Mycobacterium smegmatis mc2155 ATCC 700084 cultured in GAST media incubated for 24 hrs by resazurin microtiter assay; format: functional
[2] = test system: Mycolicibacterium smegmatis; test: Antitubercular activity against Mycobacterium smegmatis mc2155 ATCC 700084 cultured in GAST-Fe media incubated for 24 hrs by resazurin microtiter assay; format: functional
[3] = test system: Mycobacterium tuberculosis; test: microbe, parasite or virus in culture; conditions: H37Rv ATCC 27294, 192 h
[4] = test system: Mycobacterium tuberculosis; test: microbe, parasite or virus in culture; conditions: H37Rv ATCC 27294, 192 h; remark: listed apart in the source

Structure (SMILES) | MIC90 [1] | MIC90 [2] | MIC90 [3] | MIC90 [4]
COc1cccc(C2CC(c3ccccc3O)=NN2C(N)=S)c1 (stereo not drawn) | > 256 µg/mL | 256 µg/mL (≈ 782 µM) | 32 µg/mL (≈ 97.7 µM) | 64 µg/mL (≈ 195 µM)
CO[C@H]1/C=C/O[C@@]2(C)Oc3c(C)c(O)c4c(O)c(c(/C=N/N5CCN(C)CC5)c(O)c4c3C2=O)NC(=O)/C(C)=C\C=C\[C@H](C)[C@H](O)[C@@H](C)[C@@H](O)[C@@H](C)[C@H](OC(C)=O)[C@@H]1C [RIFAMPIN] | 8 µg/mL (≈ 9.72 µM) | 8 µg/mL (≈ 9.72 µM) | 0.03 µg/mL (≈ 0.0365 µM) | 0.005 µg/mL (≈ 0.00608 µM)
CC(=O)N1N=C(c2ccccc2O)CC1c1cccc(F)c1 (stereo not drawn) | 128 µg/mL (≈ 429 µM) | 128 µg/mL (≈ 429 µM) | 64 µg/mL (≈ 215 µM) | 256 µg/mL (≈ 858 µM)
COc1ccccc1C1CC(c2ccccc2O)=NN1C(N)=S (stereo not drawn) | 256 µg/mL (≈ 782 µM) | 256 µg/mL (≈ 782 µM) | 16 µg/mL (≈ 48.9 µM) | 16 µg/mL (≈ 48.9 µM)
CC(=O)N1N=C(c2ccccc2O)CC1c1ccc(Br)cc1 (stereo not drawn) | > 256 µg/mL | > 256 µg/mL | > 256 µg/mL | > 256 µg/mL
COc1ccc(C2CC(c3ccccc3O)=NN2C(C)=O)cc1 (stereo not drawn) | > 256 µg/mL | > 256 µg/mL | > 256 µg/mL | > 256 µg/mL
CC(=O)N1N=C(c2ccccc2O)CC1c1ccccc1O (stereo not drawn) | > 256 µg/mL | > 256 µg/mL | > 256 µg/mL | 256 µg/mL (≈ 864 µM)
NC(=S)N1N=C(c2ccccc2O)CC1c1cccc(Cl)c1 (stereo not drawn) | 256 µg/mL (≈ 771 µM) | 256 µg/mL (≈ 771 µM) | 16 µg/mL (≈ 48.2 µM) | 32 µg/mL (≈ 96.4 µM)
COc1ccc(C2CC(c3ccccc3O)=NN2C(C)=O)cc1O (stereo not drawn) | > 256 µg/mL | > 256 µg/mL | > 256 µg/mL | > 256 µg/mL
CC(=O)N1N=C(c2ccccc2O)CC1c1ccccc1F (stereo not drawn) | 256 µg/mL (≈ 858 µM) | 256 µg/mL (≈ 858 µM) | > 256 µg/mL | > 256 µg/mL
COc1ccccc1C1CC(c2ccccc2O)=NN1C(C)=O (stereo not drawn) | > 256 µg/mL | > 256 µg/mL | > 256 µg/mL | > 256 µg/mL
CC(=O)N1N=C(c2ccccc2O)CC1c1cccc(Br)c1 (stereo not drawn) | > 256 µg/mL | 256 µg/mL (≈ 713 µM) | > 256 µg/mL | > 256 µg/mL
CC(=O)N1N=C(c2ccccc2O)CC1c1ccccc1Cl (stereo not drawn) | > 256 µg/mL | 256 µg/mL (≈ 813 µM) | > 256 µg/mL | > 256 µg/mL
CC(=O)N1N=C(c2ccccc2O)CC1c1ccccc1Br (stereo not drawn) | > 256 µg/mL | > 256 µg/mL | > 256 µg/mL | > 256 µg/mL
CC(=O)N1N=C(c2ccccc2O)CC1c1ccc(Cl)cc1 (stereo not drawn) | > 256 µg/mL | 256 µg/mL (≈ 813 µM) | > 256 µg/mL | > 256 µg/mL
COc1cccc(C2CC(c3ccccc3O)=NN2C(C)=O)c1 (stereo not drawn) | > 256 µg/mL | 256 µg/mL (≈ 825 µM) | > 256 µg/mL | > 256 µg/mL
NC(=S)N1N=C(c2ccccc2O)CC1c1ccc(Cl)cc1 (stereo not drawn) | 128 µg/mL (≈ 386 µM) | 256 µg/mL (≈ 771 µM) | 4 µg/mL (≈ 12.1 µM) | 8 µg/mL (≈ 24.1 µM)
Cc1ccc(C2CC(c3ccccc3O)=NN2C(N)=S)cc1 (stereo not drawn) | 128 µg/mL (≈ 411 µM) | > 256 µg/mL | 8 µg/mL (≈ 25.7 µM) | 8 µg/mL (≈ 25.7 µM)
CC(=O)N1N=C(c2ccccc2O)CC1c1ccc(F)cc1 (stereo not drawn) | 128 µg/mL (≈ 429 µM) | 128 µg/mL (≈ 429 µM) | 128 µg/mL (≈ 429 µM) | 256 µg/mL (≈ 858 µM)
NC(=S)N1N=C(c2ccccc2O)CC1c1cccc(O)c1 (stereo not drawn) | 128 µg/mL (≈ 408 µM) | 256 µg/mL (≈ 817 µM) | 16 µg/mL (≈ 51.1 µM) | 128 µg/mL (≈ 408 µM)
CC(=O)N1N=C(c2ccccc2O)CC1c1cccc(O)c1 (stereo not drawn) | > 256 µg/mL | > 256 µg/mL | > 256 µg/mL | > 256 µg/mL
NC(=S)N1N=C(c2ccccc2O)CC1c1ccccc1O (stereo not drawn) | 64 µg/mL (≈ 204 µM) | 256 µg/mL (≈ 817 µM) | 256 µg/mL (≈ 817 µM) | 256 µg/mL (≈ 817 µM)
Oc1ccccc1C1=NNC(c2ccccc2Br)C1 (stereo not drawn) | 8 µg/mL (≈ 25.2 µM) | 64 µg/mL (≈ 202 µM) | 16 µg/mL (≈ 50.4 µM) | 32 µg/mL (≈ 101 µM)
NC(=S)N1N=C(c2ccccc2O)CC1c1ccccc1F (stereo not drawn) | 128 µg/mL (≈ 406 µM) | 128 µg/mL (≈ 406 µM) | 16 µg/mL (≈ 50.7 µM) | 32 µg/mL (≈ 101 µM)

Structure (SMILES) | MIC90 [1] | MIC90 [2] | MIC90 [3] | MIC90 [4]
Oc1ccccc1C1=NNC(c2ccc(F)cc2)C1 (stereo not drawn) | 8 µg/mL (≈ 31.2 µM) | 64 µg/mL (≈ 250 µM) | 16 µg/mL (≈ 62.4 µM) | 128 µg/mL (≈ 499 µM)
Oc1ccccc1C1=NNC(c2ccccc2)C1 (stereo not drawn) | 64 µg/mL (≈ 269 µM) | 128 µg/mL (≈ 537 µM) | 32 µg/mL (≈ 134 µM) | 128 µg/mL (≈ 537 µM)
CC(=O)N1N=C(c2ccccc2O)CC1c1ccccc1C (stereo not drawn) | > 256 µg/mL | 256 µg/mL (≈ 870 µM) | > 256 µg/mL | > 256 µg/mL
COc1ccc(C2CC(c3ccccc3O)=NN2)cc1O (stereo not drawn) | > 256 µg/mL | > 256 µg/mL | 128 µg/mL (≈ 450 µM) | 256 µg/mL (≈ 900 µM)
Cc1ccccc1C1CC(c2ccccc2O)=NN1 (stereo not drawn) | 16 µg/mL (≈ 63.4 µM) | 128 µg/mL (≈ 507 µM) | 16 µg/mL (≈ 63.4 µM) | 64 µg/mL (≈ 254 µM)
COc1ccc(C2CC(c3ccccc3O)=NN2C(N)=S)cc1O (stereo not drawn) | 128 µg/mL (≈ 373 µM) | 128 µg/mL (≈ 373 µM) | 8 µg/mL (≈ 23.3 µM) | 16 µg/mL (≈ 46.6 µM)
Oc1ccccc1C1=NNC(c2ccccc2F)C1 (stereo not drawn) | 8 µg/mL (≈ 31.2 µM) | 64 µg/mL (≈ 250 µM) | 16 µg/mL (≈ 62.4 µM) | 64 µg/mL (≈ 250 µM)
COc1ccccc1C1CC(c2ccccc2O)=NN1 (stereo not drawn) | 64 µg/mL (≈ 239 µM) | 128 µg/mL (≈ 477 µM) | 32 µg/mL (≈ 119 µM) | 256 µg/mL (≈ 954 µM)
Oc1ccccc1C1=NNC(c2ccccc2O)C1 (stereo not drawn) | 64 µg/mL (≈ 252 µM) | 64 µg/mL (≈ 252 µM) | 64 µg/mL (≈ 252 µM) | > 256 µg/mL
NC(=S)N1N=C(c2ccccc2O)CC1c1ccccc1Cl (stereo not drawn) | 256 µg/mL (≈ 771 µM) | 256 µg/mL (≈ 771 µM) | 8 µg/mL (≈ 24.1 µM) | 16 µg/mL (≈ 48.2 µM)
COc1ccc(C2CC(c3ccccc3O)=NN2C(N)=S)cc1 (stereo not drawn) | 128 µg/mL (≈ 391 µM) | > 256 µg/mL | 64 µg/mL (≈ 195 µM) | > 256 µg/mL
Oc1ccc(C2CC(c3ccccc3O)=NN2)cc1 (stereo not drawn) | 32 µg/mL (≈ 126 µM) | 64 µg/mL (≈ 252 µM) | 128 µg/mL (≈ 503 µM) | > 256 µg/mL
CC(=O)N1N=C(c2ccccc2O)CC1c1cccc(Cl)c1 (stereo not drawn) | 128 µg/mL (≈ 407 µM) | 128 µg/mL (≈ 407 µM) | 256 µg/mL (≈ 813 µM) | 256 µg/mL (≈ 813 µM)
Oc1cccc(C2CC(c3ccccc3O)=NN2)c1 (stereo not drawn) | 64 µg/mL (≈ 252 µM) | 64 µg/mL (≈ 252 µM) | 64 µg/mL (≈ 252 µM) | > 256 µg/mL
CC(=O)N1N=C(c2ccccc2O)CC1c1ccc(C)cc1 (stereo not drawn) | > 256 µg/mL | 256 µg/mL (≈ 870 µM) | > 256 µg/mL | > 256 µg/mL
Oc1ccccc1C1=NNC(c2cccc(F)c2)C1 (stereo not drawn) | 16 µg/mL (≈ 62.4 µM) | 64 µg/mL (≈ 250 µM) | 64 µg/mL (≈ 250 µM) | 256 µg/mL (≈ 999 µM)
CC(=O)N1N=C(c2ccccc2O)CC1c1ccc(O)cc1 (stereo not drawn) | > 256 µg/mL | > 256 µg/mL | > 256 µg/mL | > 256 µg/mL
NNC(=O)c1ccncc1 [ISONIAZID] | 2 µg/mL (≈ 14.6 µM) | 2 µg/mL (≈ 14.6 µM) | 0.03 µg/mL (≈ 0.219 µM) | 0.005 µg/mL (≈ 0.0365 µM)
Cc1ccc(C2CC(c3ccccc3O)=NN2)cc1 (stereo not drawn) | 16 µg/mL (≈ 63.4 µM) | 64 µg/mL (≈ 254 µM) | 8 µg/mL (≈ 31.7 µM) | 32 µg/mL (≈ 127 µM)
Oc1ccccc1C1=NNC(c2ccccc2Cl)C1 (stereo not drawn) | 8 µg/mL (≈ 29.3 µM) | 64 µg/mL (≈ 235 µM) | 16 µg/mL (≈ 58.7 µM) | 32 µg/mL (≈ 117 µM)
CC(=O)N1N=C(c2ccccc2O)CC1c1ccccc1 (stereo not drawn) | > 256 µg/mL | > 256 µg/mL | > 256 µg/mL | > 256 µg/mL
COc1ccc(C2CC(c3ccccc3O)=NN2)cc1 (stereo not drawn) | 64 µg/mL (≈ 239 µM) | 128 µg/mL (≈ 477 µM) | 32 µg/mL (≈ 119 µM) | 128 µg/mL (≈ 477 µM)
Cc1ccccc1C1CC(c2ccccc2O)=NN1C(N)=S (stereo not drawn) | 128 µg/mL (≈ 411 µM) | > 256 µg/mL | 16 µg/mL (≈ 51.4 µM) | 16 µg/mL (≈ 51.4 µM)
